# Test results: ChEMBL document CHEMBL4312010, “Synthesis and antibacterial evaluation of novel oxazolidinone derivatives containing a piperidinyl moiety” (Bioorg Med Chem Lett, 2019)
# Legend:
# Staphylococcus aureus [1] = test: Antibacterial activity agianst methicillin-resistant Staphylococcus aureus; assay type: functional
# Staphylococcus aureus [2] = test: Antibacterial activity agianst Staphylococcus aureus ATCC 29213; assay type: functional
# Enterococcus faecium [3] = test: Antibacterial activity agianst vancomycin-resistant Enterococcus faecium; assay type: functional
# Staphylococcus aureus [4] = test: Antibacterial activity agianst methicillin-sensitive Staphylococcus aureus; assay type: functional
# Enterococcus faecalis [5] = test: Antibacterial activity agianst linezolid-resistant Enterococcus faecalis; assay type: functional
# [6] = target: T1, MAO-A (amine oxidase [flavin-containing] A) (Homo sapiens, UniProt P21397); test: Inhibition of human MAO-A at 30 uM relative to control
# T1 sequence (P21397 whole entry): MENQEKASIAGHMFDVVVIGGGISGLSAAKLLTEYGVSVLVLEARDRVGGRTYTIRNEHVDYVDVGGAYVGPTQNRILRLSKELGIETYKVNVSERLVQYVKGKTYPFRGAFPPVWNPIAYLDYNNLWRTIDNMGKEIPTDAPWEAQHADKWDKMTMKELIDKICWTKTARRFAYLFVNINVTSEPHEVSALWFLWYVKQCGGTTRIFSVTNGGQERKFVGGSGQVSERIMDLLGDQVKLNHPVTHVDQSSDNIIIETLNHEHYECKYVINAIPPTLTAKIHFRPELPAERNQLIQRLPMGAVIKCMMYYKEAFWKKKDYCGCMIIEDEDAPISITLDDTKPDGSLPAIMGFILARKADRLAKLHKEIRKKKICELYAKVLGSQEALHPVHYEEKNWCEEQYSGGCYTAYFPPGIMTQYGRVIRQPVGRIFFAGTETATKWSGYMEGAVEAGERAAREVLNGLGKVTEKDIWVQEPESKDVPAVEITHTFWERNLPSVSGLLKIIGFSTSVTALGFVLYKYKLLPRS
# Staphylococcus aureus [7] = test: Antibacterial activity agianst methicillin-sensitive Staphylococcus aureus clinical isolates; assay type: functional
# HepG2 = test: Cytotoxicity against human HepG2 cells assessed as reduction in cell viability; assay type: cell-based
# [8] = Metabolic stability in human liver microsomes assessed as parent compound remaining after 45 mins in presence of NADPH relative to control; assay type: ADME, Microsome; conditions: read-out: Stability
# Staphylococcus aureus [9] = test: Antibacterial activity agianst methicillin-resistant Staphylococcus aureus clinical isolates; assay type: functional
# Enterococcus faecalis [10] = test: Antibacterial activity agianst linezolid-resistant Enterococcus faecalis clinical isolates; assay type: functional
# Enterococcus faecium [11] = test: Antibacterial activity agianst vancomycin-resistant Enterococcus faecium clinical isolates; assay type: functional
# [12] = Intrinsic clearance in human liver microsomes; assay type: ADME, Microsome; conditions: read-out: CLH
# Enterococcus faecalis [13] = test: Potency index, ratio of linezolid MIC to compound MIC for antibacterial activity against linezolid-resistant Enterococcus faecalis; assay type: functional
# Enterococcus faecalis [14] = test: Potency index, ratio of linezolid MIC to compound MIC for antibacterial activity against linezolid-resistant Enterococcus faecalis clinical isolates; assay type: functional
# [15] = Half life in human liver microsomes; assay type: ADME, Microsome
SMILES,MIC (Staphylococcus aureus [1]) [µg/mL],MIC (Staphylococcus aureus [2]) [µg/mL],MIC (Enterococcus faecium [3]) [µg/mL],MIC (Staphylococcus aureus [4]) [µg/mL],MIC (Enterococcus faecalis [5]) [µg/mL],inhibition at 30 µM [6] [%],MIC (Staphylococcus aureus [7]) [µg/mL],IC50 (HepG2) [µM],remaining at 0.75 h [8] [%],MIC (Staphylococcus aureus [9]) [µg/mL],MIC (Enterococcus faecalis [10]) [µg/mL],MIC (Enterococcus faecium [11]) [µg/mL],CLint scaled [12] [mL/min/kg],Ratio (Enterococcus faecalis [13]),Ratio (Enterococcus faecalis [14]),half-life [15] [h]
CC(=O)NC[C@H]1CN(c2ccc(N3CCN(Cc4ccc([N+](=O)[O-])o4)CC3)c(F)c2)C(=O)O1 [RANBEZOLID],0.5,0.5,0.5,0.5,0.5,,,,,,,,,,,
CC(=O)NC[C@H]1CN(c2ccc(N3CCOCC3)c(F)c2)C(=O)O1 [LINEZOLID],1,1,2,1,> 16,75,1 to 2,> 64,18,1 to 4,> 16,1 to 4,,,,
CC(=O)NC[C@H]1CN(c2ccc(N3CCC(NCc4ccc(F)cc4)CC3)c(F)c2)C(=O)O1,1,1,2,1,2,,,,,,,,,,,
CC(=O)NC[C@H]1CN(c2ccc(N3CCC(Nc4ccc(C(C)C)cc4)CC3)c(F)c2)C(=O)O1,1,2,0.5,2,0.5,,,,,,,,,,,
CC(=O)NC[C@H]1CN(c2ccc(N3CCC(Nc4ccc(Br)cc4F)CC3)c(F)c2)C(=O)O1,2,2,2,2,1,,,,,,,,,,,
CC(=O)NC[C@H]1CN(c2ccc(N3CCC(Nc4ccc(F)cc4)CC3)c(F)c2)C(=O)O1,0.5,1,1,1,1,,,,,,,,,,,
CC(=O)NC[C@H]1CN(c2ccc(N3CCC(NCc4ccccc4)CC3)c(F)c2)C(=O)O1,1,2,2,1,2,,,,,,,,,,,
CC(=O)NC[C@H]1CN(c2ccc(N3CCC(Nc4ccccc4Br)CC3)c(F)c2)C(=O)O1,2,2,2,2,2,,,,,,,,,,,
CC(=O)NC[C@H]1CN(c2ccc(N3CCC(Nc4cccc(Br)c4)CC3)c(F)c2)C(=O)O1,2,2,2,2,2,,,,,,,,,,,
CC(=O)NC[C@H]1CN(c2ccc(N3CCC(Nc4ccc(Br)cc4)CC3)c(F)c2)C(=O)O1,0.5,1,0.25,1,0.25,70,0.5 to 1,> 64,97,,0.0625 to 0.25,0.125 to 0.25,3.46,64,64,8.37
CC(=O)NC[C@H]1CN(c2ccc(N3CCC(Nc4ccc(OC(F)(F)F)cc4)CC3)c(F)c2)C(=O)O1,1,1,0.5,1,0.5,,,,,,,,,,,
CC(=O)NC[C@H]1CN(c2ccc(N3CCC(N(C)c4ccc(Br)cc4)CC3)c(F)c2)C(=O)O1,2,2,1,2,1,,,,,,,,,,,
CC(=O)NC[C@H]1CN(c2ccc(N3CCC(Nc4cccc(OC(F)(F)F)c4)CC3)c(F)c2)C(=O)O1,2,2,2,2,2,,,,,,,,,,,
CC(=O)NC[C@H]1CN(c2ccc(N3CCC(Nc4ccccc4)CC3)c(F)c2)C(=O)O1,1,1,1,1,0.5,85,0.5 to 1,,,,0.125 to 0.25,0.25 to 0.5,,,,
CC(=O)NC[C@H]1CN(c2ccc(N3CCC(Nc4ccccc4OC(F)(F)F)CC3)c(F)c2)C(=O)O1,2,2,2,2,1,,,,,,,,,,,
CC(=O)NC[C@H]1CN(c2ccc(N3CCC(Nc4ccc(Cl)cc4)CC3)c(F)c2)C(=O)O1,2,2,2,2,2,,,,,,,,,,,
CC(=O)NC[C@H]1CN(c2ccc(N3CCN(/N=C/c4ccc([N+](=O)[O-])o4)CC3)c(F)c2)C(=O)O1,1,0.5,1,,,,,,,,,,,,,
